Assay: Pharmacokinetics (PK) test of immediate release formulation (capsule formulation) in human
Type: in vivo
Settings: healthy subjects; immediate release capsules, 0.1 to 340 mg; FIG. 11
Procedure: The immediate release formulations (capsule formulations) containing 0.1 mg, 1 mg, 5 mg, 20 mg, and 80 mg of the compound A were used in combinations as needed so that the dose of compound A became 0.1 mg, 1 mg, 3 mg, 10 mg, 30 mg, 100 mg, 160 mg, 240 mg, and 340 mg.

Question: With `Nc1nc(CC(=O)Nc2ccc(CCNC[C@H](O)c3ccccc3)cc2)cs1` [compound A, (R)-2-(2-aminothiazol-4-yl)-4′-[2-[(2-hydroxy-2-phenylethyl)amino]ethyl]acetic acid anilide] as the molecule, how does the “relation between maximum plasma concentration (Cmax) and increase in heart rate from the base line” value read?
Answer: positive correlation
